According to patent publication US9006396B2, “CsPCNA isoform antibodies and uses thereof” (priority 2005, dated 2015):
Where no end group is shown, it is not given here.

What was measured:
[1] = biological target: Ab126 capture of the csPCNA isoform present in recombinant PCNA (Homo sapiens, UniProt P12004); test: Sandwich ELISA with Ab126 capture antibody and competing peptide; assay type: binding; conditions: Ab126 capture 1 μg/well, C20 detection; peptide 0.024-2400 ng/well; FIG. 15B
Procedure: (§1) A sandwich ELISA was performed in which either the csPCNA specific Ab126 antibody (1 μg/well) or the non-specific PCNA antibody C20 (1 μg/well) was immobilized to the ELISA plate, and used to capture the recombinant PCNA used in the assay. Residual binding sites on the ELISA plate were blocked with BSA, and recombinant PCNA was incubated with the immobilized capture antibody in the presence of a range of concentrations of competing peptide (UMPB6—(0.024 ng/well-2400 ng/well)). After washing off unbound PCNA, the bound protein was detected with the C20 antibody in the first case, and with Ab126 in the second case. These detection antibodies were added to each well of the ELISA plate. The appropriate alkaline phosphatase conjugated secondary anti-rabbit or anti-goat IgG antibody was incubated with the bound antibody in each of the ELISA plate wells, and after washing away non-specifically bound antibody with PBS-0.05% Tween 20, the amount of detection antibody bound to the captured PCNA was determined by incubating the secondary antibody remaining in each well with 1 mg/ml of p-nitrophenolphosphate for 30 minutes.

[2] = biological target: C20 antibody capture of recombinant PCNA (Homo sapiens, UniProt P12004); test: Sandwich ELISA with C20 capture antibody and competing peptide; assay type: binding; conditions: C20 capture 1 μg/well, Ab126 detection; peptide 0.024-2400 ng/well; FIG. 15B
Procedure: as §1

Sequence of C20 antibody capture of recombinant PCNA (P12004 whole entry): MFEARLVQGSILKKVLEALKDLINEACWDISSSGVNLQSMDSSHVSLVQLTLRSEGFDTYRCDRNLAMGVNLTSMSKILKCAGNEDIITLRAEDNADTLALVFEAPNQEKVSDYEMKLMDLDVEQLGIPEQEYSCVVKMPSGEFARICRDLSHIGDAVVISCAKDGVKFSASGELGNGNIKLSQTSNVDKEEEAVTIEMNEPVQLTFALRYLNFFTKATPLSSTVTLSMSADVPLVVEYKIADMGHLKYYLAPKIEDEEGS
Sequence of Ab126 capture of the csPCNA isoform present in recombinant PCNA (P12004 whole entry, canonical isoform): as the sequence (P12004 whole entry) above

apparent IC50 for competing for the capture antibody [1]: over 1 μg/well | effect on ability of C20 antibody to capture recombinant PCNA [2]: no detectable effect
Sequence: LGIPEQEY [UMPB6]
